# Reference: ChEMBL document CHEMBL5696441 (Nat Chem Biol, 2011)
# Experiments:
# [1] = target: Serine/threonine-protein kinase Nek7 (Homo sapiens) (UniProt Q8TDX7); experiment: Inhibition of human NEK7 assessed as residual activity at 1 uM using casein as substrate in presence of 33P-ATP by ProQinase assay relative to control
# [2] = target: Hepatocyte growth factor receptor (Homo sapiens) (UniProt P08581); experiment: Inhibition of human MET assessed as residual activity at 1 uM using poly(Ala,Glu,Lys,Tyr)6:2:5:1 as substrate in presence of 33P-ATP by ProQinase assay relative to control
# [3] = target: Dual specificity mitogen-activated protein kinase kinase 1 (Homo sapiens) (UniProt Q02750); experiment: Inhibition of human MEK1 assessed as residual activity at 1 uM using ERK2-KR as substrate in presence of 33P-ATP by ProQinase assay relative to control
# [4] = target: T1, Serine/threonine-protein kinase NLK (Homo sapiens) (UniProt Q9UBE8); experiment: Inhibition of human NLK assessed as residual activity at 1 uM using RBER-GSK3 as substrate in presence of 33P-ATP by ProQinase assay relative to control
# T1 sequence (whole entry): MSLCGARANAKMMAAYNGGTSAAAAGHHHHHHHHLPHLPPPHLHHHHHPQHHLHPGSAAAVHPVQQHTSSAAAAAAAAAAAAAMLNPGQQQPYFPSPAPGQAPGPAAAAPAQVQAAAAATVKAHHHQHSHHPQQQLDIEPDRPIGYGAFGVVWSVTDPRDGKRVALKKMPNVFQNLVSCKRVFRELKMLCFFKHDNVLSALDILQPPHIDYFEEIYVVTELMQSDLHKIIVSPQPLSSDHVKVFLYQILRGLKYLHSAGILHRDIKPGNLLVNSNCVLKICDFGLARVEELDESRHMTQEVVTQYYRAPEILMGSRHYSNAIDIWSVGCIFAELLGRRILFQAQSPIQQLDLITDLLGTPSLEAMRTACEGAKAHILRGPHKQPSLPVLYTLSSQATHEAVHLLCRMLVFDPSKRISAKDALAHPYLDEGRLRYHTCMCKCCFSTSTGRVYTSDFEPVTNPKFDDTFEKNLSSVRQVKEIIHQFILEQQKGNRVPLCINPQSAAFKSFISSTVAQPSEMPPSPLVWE
# [5] = target: Homeodomain-interacting protein kinase 1 (Homo sapiens) (UniProt Q86Z02); experiment: Inhibition of HIPK1 (unknown origin) assessed as remaining activity at 1 uM by Kinome scan method relative to control
# [6] = target: Macrophage colony-stimulating factor 1 receptor (Homo sapiens) (UniProt P07333); experiment: Inhibition of human CSF1R assessed as residual activity at 1 uM using polyEY as substrate in presence of 33P-ATP by ProQinase assay relative to control
# [7] = target: MAP kinase-activated protein kinase 5 (Homo sapiens) (UniProt Q8IW41); experiment: Inhibition of MAPKAPK5 (unknown origin) assessed as remaining activity at 1 uM by Kinome scan method relative to control
# [8] = target: Calcium/calmodulin-dependent protein kinase type II subunit gamma (Homo sapiens) (UniProt Q13555); experiment: Inhibition of CAMK2G (unknown origin) assessed as remaining activity at 1 uM by Kinome scan method relative to control
# [9] = target: Tyrosine-protein kinase ZAP-70 (Homo sapiens) (UniProt P43403); experiment: Inhibition of ZAP70 (unknown origin) assessed as remaining activity at 1 uM by Kinome scan method relative to control
# [10] = target: Serine/threonine-protein kinase MAK (Homo sapiens) (UniProt P20794); experiment: Inhibition of MAK (unknown origin) assessed as remaining activity at 1 uM by Kinome scan method relative to control
# [11] = target: Ribosomal protein S6 kinase alpha-5 (Homo sapiens) (UniProt O75582); experiment: Inhibition of human RPS6KA5 assessed as residual activity at 1 uM using RBER-CHKtide as substrate in presence of 33P-ATP by ProQinase assay relative to control
# [12] = target: Tyrosine-protein kinase Lck (Homo sapiens) (UniProt P06239); experiment: Inhibition of human LCK assessed as residual activity at 1 uM using polyEY as substrate in presence of 33P-ATP by ProQinase assay relative to control
# [13] = target: Proto-oncogene tyrosine-protein kinase receptor Ret (Homo sapiens) (UniProt P07949); experiment: Inhibition of RET (unknown origin) assessed as remaining activity at 1 uM by Kinome scan method relative to control
# [14] = Anti-inflammatory activity against human derived medium respond PBMC cells assessed as inhibition in stimulated IL-1ra cytokine release incubated for 2 hrs in the presence of LPS/SEB/aCD28 by Luminex based sandwich immunoassay; format: functional, cell-based
# [15] = target: Protein kinase C epsilon type (Homo sapiens) (UniProt Q02156); experiment: Inhibition of PRKCE (unknown origin) assessed as remaining activity at 1 uM by Kinome scan method relative to control
# [16] = target: Serine/threonine-protein kinase haspin (Homo sapiens) (UniProt Q8TF76); experiment: Inhibition of human GSG2 assessed as residual activity at 1 uM using histon H3 as substrate in presence of 33P-ATP by ProQinase assay relative to control
# [17] = target: ALK tyrosine kinase receptor (Homo sapiens) (UniProt Q9UM73); experiment: Inhibition of ALK (unknown origin) assessed as remaining activity at 1 uM by Kinome scan method relative to control
# [18] = target: Serine/threonine-protein kinase 38-like (Homo sapiens) (UniProt Q9Y2H1); experiment: Inhibition of NDR2 (unknown origin) assessed as remaining activity at 1 uM by Kinome scan method relative to control
# [19] = tested on: Tyrosine-protein kinase ABL1 (Homo sapiens), P00519 [Y253F]; experiment: Inhibition of ABL1 Y253F mutant (unknown origin) assessed as remaining activity at 1 uM by Kinome scan method relative to control
# [20] = tested on: Tyrosine-protein kinase ABL1 (Homo sapiens), P00519 [H396P]; experiment: Inhibition of ABL1 H396P mutant (unknown origin) assessed as remaining activity at 1 uM by Kinome scan method relative to control
# [21] = target: SRSF protein kinase 1 (Homo sapiens) (UniProt Q96SB4); experiment: Inhibition of SRPK1 (unknown origin) assessed as remaining activity at 1 uM by Kinome scan method relative to control
# [22] = target: Ephrin type-A receptor 6 (Homo sapiens) (UniProt Q9UF33); experiment: Inhibition of EPHA6 (unknown origin) assessed as remaining activity at 1 uM by Kinome scan method relative to control
# [23] = target: Serine/threonine-protein kinase TBK1 (Homo sapiens) (UniProt Q9UHD2); experiment: Inhibition of TBK1 (unknown origin) assessed as remaining activity at 1 uM by Kinome scan method relative to control
# [24] = target: Dual specificity protein kinase CLK3 (Homo sapiens) (UniProt P49761); experiment: Inhibition of CLK3 (unknown origin) assessed as remaining activity at 1 uM by Kinome scan method relative to control
# [25] = target: Leukocyte tyrosine kinase receptor (Homo sapiens) (UniProt P29376); experiment: Inhibition of human LTK assessed as residual activity at 1 uM using polyEY as substrate in presence of 33P-ATP by ProQinase assay relative to control
# Chain of Homeodomain-interacting protein kinase 1 (Homo sapiens) (Q86Z02 whole entry, looked up): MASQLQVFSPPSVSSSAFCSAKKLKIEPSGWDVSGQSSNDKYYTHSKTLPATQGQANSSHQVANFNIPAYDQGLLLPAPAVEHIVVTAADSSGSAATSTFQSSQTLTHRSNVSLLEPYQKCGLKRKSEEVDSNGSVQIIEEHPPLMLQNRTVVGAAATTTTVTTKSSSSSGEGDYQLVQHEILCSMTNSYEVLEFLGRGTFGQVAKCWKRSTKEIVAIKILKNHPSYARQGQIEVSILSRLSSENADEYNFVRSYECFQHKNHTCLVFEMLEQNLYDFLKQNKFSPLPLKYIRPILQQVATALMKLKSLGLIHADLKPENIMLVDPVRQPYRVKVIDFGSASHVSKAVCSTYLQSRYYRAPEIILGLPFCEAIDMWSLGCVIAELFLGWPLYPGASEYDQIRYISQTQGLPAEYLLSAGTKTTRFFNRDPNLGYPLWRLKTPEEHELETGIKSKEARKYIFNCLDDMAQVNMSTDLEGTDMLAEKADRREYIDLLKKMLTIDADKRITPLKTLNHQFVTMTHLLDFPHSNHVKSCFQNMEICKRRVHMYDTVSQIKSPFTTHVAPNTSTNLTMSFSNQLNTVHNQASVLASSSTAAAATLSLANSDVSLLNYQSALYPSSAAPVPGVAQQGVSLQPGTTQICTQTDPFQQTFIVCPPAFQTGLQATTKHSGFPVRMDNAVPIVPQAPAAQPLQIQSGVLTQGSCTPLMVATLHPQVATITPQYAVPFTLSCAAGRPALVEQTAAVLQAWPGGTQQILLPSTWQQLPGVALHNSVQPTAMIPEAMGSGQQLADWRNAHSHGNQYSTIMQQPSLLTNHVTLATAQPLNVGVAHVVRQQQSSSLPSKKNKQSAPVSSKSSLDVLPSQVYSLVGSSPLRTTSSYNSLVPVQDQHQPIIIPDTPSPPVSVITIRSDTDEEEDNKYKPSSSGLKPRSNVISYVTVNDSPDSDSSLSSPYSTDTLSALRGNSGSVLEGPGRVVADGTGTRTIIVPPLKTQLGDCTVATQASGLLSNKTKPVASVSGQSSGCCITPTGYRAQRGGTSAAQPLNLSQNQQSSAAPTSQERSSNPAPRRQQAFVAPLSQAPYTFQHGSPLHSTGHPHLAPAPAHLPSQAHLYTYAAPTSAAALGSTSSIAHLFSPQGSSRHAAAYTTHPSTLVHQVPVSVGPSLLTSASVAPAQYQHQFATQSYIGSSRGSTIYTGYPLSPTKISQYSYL
# Chain of Tyrosine-protein kinase Lck (Homo sapiens) (P06239 2-509 limits assumed): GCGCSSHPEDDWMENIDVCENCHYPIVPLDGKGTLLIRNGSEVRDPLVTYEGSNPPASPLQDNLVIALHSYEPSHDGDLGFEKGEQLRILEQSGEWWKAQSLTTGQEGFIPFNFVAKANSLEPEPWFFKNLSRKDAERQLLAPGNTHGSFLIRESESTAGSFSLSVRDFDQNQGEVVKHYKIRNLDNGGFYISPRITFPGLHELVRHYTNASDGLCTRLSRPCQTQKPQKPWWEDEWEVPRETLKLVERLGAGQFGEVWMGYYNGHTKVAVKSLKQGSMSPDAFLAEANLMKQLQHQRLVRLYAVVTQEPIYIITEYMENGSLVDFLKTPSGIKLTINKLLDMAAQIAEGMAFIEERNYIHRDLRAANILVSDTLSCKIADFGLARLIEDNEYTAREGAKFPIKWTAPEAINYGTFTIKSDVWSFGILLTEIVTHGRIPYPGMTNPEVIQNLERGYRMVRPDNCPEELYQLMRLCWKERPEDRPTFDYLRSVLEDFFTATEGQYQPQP
# Chain of Ephrin type-A receptor 6 (Homo sapiens) (Q9UF33 whole entry): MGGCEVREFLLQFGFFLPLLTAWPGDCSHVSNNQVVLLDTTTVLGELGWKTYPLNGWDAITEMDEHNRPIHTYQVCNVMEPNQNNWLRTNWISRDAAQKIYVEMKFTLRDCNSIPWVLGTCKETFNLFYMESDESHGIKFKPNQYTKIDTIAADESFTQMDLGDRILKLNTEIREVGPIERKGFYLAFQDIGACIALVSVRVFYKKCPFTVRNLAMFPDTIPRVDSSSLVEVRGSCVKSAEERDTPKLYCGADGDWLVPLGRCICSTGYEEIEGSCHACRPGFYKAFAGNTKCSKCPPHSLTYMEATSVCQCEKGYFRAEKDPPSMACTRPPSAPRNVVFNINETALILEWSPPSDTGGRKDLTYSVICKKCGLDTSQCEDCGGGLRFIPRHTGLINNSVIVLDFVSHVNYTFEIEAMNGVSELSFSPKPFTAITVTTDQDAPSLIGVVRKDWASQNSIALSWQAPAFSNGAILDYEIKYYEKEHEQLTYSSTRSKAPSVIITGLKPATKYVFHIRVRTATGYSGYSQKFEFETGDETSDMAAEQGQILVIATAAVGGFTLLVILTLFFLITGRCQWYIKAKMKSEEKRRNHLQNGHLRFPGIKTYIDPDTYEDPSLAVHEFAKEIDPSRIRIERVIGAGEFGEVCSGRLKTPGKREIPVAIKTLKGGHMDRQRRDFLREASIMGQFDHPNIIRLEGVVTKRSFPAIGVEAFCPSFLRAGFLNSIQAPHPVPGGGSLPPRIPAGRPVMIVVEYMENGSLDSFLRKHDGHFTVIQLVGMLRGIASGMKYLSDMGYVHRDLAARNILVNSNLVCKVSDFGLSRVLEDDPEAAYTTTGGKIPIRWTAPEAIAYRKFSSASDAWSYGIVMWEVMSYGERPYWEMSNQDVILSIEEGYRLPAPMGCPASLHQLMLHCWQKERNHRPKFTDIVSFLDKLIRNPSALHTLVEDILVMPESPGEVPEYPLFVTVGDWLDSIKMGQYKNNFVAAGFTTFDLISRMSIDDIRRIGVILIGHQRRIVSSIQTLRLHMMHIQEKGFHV
# Chain of Protein kinase C epsilon type (Homo sapiens) (Q02156 whole entry): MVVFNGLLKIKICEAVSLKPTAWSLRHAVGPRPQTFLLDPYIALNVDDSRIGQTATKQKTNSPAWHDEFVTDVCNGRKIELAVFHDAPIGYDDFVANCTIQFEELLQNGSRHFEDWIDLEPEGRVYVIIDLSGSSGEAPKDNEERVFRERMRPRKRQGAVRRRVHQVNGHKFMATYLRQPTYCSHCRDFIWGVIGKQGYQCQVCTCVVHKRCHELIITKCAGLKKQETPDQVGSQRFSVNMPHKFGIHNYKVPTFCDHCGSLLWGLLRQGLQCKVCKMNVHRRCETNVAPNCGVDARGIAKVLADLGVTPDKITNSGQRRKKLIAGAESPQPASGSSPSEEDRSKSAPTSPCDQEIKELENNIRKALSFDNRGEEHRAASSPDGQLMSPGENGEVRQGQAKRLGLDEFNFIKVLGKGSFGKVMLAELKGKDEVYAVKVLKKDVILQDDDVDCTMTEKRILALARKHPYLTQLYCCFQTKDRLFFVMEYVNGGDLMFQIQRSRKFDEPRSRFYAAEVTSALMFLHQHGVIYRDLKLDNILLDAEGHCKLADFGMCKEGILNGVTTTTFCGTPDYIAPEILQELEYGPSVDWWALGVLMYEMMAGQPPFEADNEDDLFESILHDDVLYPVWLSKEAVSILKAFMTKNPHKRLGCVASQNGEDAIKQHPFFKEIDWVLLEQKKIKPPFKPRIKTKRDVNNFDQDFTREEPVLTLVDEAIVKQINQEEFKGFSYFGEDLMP
# Chain of SRSF protein kinase 1 (Homo sapiens) (Q96SB4 whole entry): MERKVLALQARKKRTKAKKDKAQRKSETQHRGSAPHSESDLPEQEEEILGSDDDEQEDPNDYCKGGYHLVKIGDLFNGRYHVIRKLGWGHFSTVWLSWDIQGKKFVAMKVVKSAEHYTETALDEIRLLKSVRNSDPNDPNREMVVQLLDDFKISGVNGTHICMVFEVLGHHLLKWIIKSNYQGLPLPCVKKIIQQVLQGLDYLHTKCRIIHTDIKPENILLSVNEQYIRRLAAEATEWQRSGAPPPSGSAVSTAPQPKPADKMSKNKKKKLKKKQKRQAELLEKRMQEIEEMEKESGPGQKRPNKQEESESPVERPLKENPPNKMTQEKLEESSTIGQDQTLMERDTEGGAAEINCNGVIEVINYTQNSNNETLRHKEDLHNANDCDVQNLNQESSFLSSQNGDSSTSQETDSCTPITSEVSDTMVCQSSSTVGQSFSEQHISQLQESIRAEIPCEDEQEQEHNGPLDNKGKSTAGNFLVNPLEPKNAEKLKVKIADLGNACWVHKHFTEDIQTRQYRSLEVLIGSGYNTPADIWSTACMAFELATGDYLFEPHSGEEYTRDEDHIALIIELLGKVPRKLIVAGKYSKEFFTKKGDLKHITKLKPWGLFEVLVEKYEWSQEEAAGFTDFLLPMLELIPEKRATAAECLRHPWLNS
# Chain of Serine/threonine-protein kinase haspin (Homo sapiens) (Q8TF76 whole entry): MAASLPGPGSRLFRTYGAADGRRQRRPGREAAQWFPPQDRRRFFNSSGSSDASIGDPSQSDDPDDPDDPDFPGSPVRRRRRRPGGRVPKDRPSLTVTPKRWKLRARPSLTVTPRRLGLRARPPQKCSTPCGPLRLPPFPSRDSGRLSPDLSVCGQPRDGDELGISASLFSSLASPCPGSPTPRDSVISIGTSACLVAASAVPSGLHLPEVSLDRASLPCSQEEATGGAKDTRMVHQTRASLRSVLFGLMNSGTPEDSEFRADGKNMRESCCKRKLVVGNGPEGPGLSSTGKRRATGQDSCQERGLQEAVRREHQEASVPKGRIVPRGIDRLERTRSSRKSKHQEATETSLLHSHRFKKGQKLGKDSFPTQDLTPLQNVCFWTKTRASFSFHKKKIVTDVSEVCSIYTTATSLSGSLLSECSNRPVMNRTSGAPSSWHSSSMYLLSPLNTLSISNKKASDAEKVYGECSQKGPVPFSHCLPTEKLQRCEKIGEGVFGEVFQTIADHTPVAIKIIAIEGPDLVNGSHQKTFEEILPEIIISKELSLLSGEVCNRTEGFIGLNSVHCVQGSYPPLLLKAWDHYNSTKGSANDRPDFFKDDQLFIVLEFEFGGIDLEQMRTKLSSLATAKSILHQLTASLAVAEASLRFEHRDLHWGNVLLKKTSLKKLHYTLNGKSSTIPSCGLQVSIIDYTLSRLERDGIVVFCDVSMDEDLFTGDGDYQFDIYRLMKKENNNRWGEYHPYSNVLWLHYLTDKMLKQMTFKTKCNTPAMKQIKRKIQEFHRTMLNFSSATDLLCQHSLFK
smiles,measurement,setting,value
O=C1c2ccc(Nc3ccc(F)cc3F)cc2CCc2ccc(OC[C@H](O)CO)cc21 [Skepinone-L],Activity,[1],83%
same,Activity,[2],108%
same,Activity,[3],79%
same,Activity,[4],87%
same,Activity,[5],100%
same,Activity,[6],106%
same,Activity,[7],100%
same,Activity,[8],100%
same,Activity,[9],100%
same,Activity,[10],84%
same,Activity,[11],77%
same,Activity,[12],102%
same,Activity,[13],97%
same,IC50,[14],870 nM
same,Activity,[15],100%
same,Activity,[16],82%
same,Activity,[17],100%
same,Activity,[18],100%
same,Activity,[19],90%
same,Activity,[20],100%
same,Activity,[21],100%
same,Activity,[22],96%
same,Activity,[23],100%
same,Activity,[24],96%
same,Activity,[25],97%
